Data as given in US9115147B2, “Tricyclic derivatives and their pharmaceutical use and compositions” (Cephalon, Inc., priority 2009, dated 2015).

molecular target: T1, human 5-HT6 receptor (Homo sapiens, UniProt P50406); assay: Human 5-HT6 Receptor Binding Assay ([3H]LSD, scintillation beads); settings: actual data; membranes of CHO-K1 cells with recombinant human 5-HT6 receptor, 4 nM [3H]LSD; read-out: Human 5-HT6 Ki
T1 construct: host or cells: CHO-K1 cells, stably transfected; membranes prepared in house
Summary of the method: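 Membranes from CHO-K1 cells stably expressing human 5-HT6, 1.75 μg protein/well with scintillation beads, in 50 mM Tris pH 7.4, 4 mM CaCl2, saponin, ascorbic acid. Nonspecific binding with 10 μM serotonin. IC50 from variable-slope fit; Ki by Cheng-Prusoff.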

T1 sequence (P50406 whole entry): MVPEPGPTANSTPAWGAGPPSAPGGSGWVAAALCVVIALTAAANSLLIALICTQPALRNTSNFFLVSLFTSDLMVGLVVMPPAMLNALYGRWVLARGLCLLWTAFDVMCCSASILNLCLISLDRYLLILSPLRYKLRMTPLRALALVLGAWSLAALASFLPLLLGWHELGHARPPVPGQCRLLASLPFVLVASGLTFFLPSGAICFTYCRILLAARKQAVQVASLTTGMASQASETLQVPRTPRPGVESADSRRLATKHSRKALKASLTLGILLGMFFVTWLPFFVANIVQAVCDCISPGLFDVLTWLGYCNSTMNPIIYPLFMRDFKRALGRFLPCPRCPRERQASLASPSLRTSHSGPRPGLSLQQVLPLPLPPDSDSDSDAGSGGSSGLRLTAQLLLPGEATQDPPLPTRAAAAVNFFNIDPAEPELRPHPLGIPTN

Ki [nM] | Structure (SMILES)
221 | O=S(=O)(c1ccccc1)c1ccc2c(c1)OCC1C2CCN1CCO (single isomer, unassigned) [Example 97, 2-[7-(phenylsulfonyl)-1,3a,4,9b-tetrahydrochromeno[3,4-b]pyrrol-3(2H)-yl]ethanol]

same assay, conditions: membranes of CHO-K1 cells with recombinant human 5-HT6 receptor, 4 nM [3H]LSD, Cheng-Prusoff; read-out: Human 5-HT6 Ki app

Ki [nM] | Structure (SMILES)
> 1000 | Cc1cccc(S(=O)(=O)c2ccc3c(c2)OCC2C3CCN2C2CCC2)n1 (single isomer, unassigned) [Example 85, 3-cyclobutyl-7-[(6-methylpyridin-2-yl)sulfonyl]-1,2,3,3a,4,9b-hexahydrochromeno[3,4-b]pyrrole]
> 1000 | O=S(=O)(c1cncc(C(F)(F)F)c1)c1ccc2c(c1)OCC1C2CCN1C1CCC1 (single isomer, unassigned) [Example 86, 3-cyclobutyl-7-{[5-(trifluoromethyl)pyridin-3-yl]sulfonyl}-1,2,3,3a,4,9b-hexahydrochromeno[3,4-b]pyrrole]
> 1000 | O=S(=O)(c1cncc(C(F)(F)F)c1)c1ccc2c(c1)OCC1C2CCN1C1CCC1 (single isomer, unassigned) [Example 87, 3-cyclobutyl-7-{[5-(trifluoromethyl)pyridin-3-yl]sulfonyl}-1,2,3,3a,4,9b-hexahydrochromeno[3,4-b]pyrrole]
< 500 | O=S(=O)(c1ccccc1)c1ccc2c(c1)C1CCN(C3CCC3)C1CO2 (single isomer, unassigned) [Example 88, 3-cyclobutyl-8-(phenylsulfonyl)-1,2,3,3a,4,9b-hexahydrochromeno[3,4-b]pyrrole]
< 500 | O=S(=O)(c1ccccc1)c1ccc2c(c1)C1CCN(C3CCC3)C1CO2 (single isomer, unassigned) [Example 89, 3-cyclobutyl-8-(phenylsulfonyl)-1,2,3,3a,4,9b-hexahydrochromeno[3,4-b]pyrrole]
< 500 | O=S(=O)(c1ccccc1)c1ccc2c(c1)OCC1C2CCN1CCO (single isomer, unassigned) [Example 90, 2-[7-(Phenylsulfonyl)-1,3a,4,9b-tetrahydrochromeno[3,4-b]pyrrol-3(2H)-yl]ethanol]
< 500 | CC(C)CN1CCC2c3ccc(S(=O)(=O)c4ccccc4)cc3OCC21 (single isomer, unassigned) [Example 91, 3-(2-methylpropyl)-7-(phenylsulfonyl)-1,2,3,3a,4,9b-hexahydrochromeno[3,4-b]pyrrole]
< 500 | COCCN1CCC2c3ccc(S(=O)(=O)c4ccccc4)cc3OCC21 (single isomer, unassigned) [Example 92, 3-(2-methoxyethyl)-7-(phenylsulfonyl)-1,2,3,3a,4,9b-hexahydrochromeno[3,4-b]pyrrole]
< 500 | O=S(=O)(c1ccccc1)c1ccc2c(c1)OCC1C2CCN1CCCO (single isomer, unassigned) [Example 93, 3[7-(phenylsulfonyl)-1,3a,4,9b-tetrahydrochromeno[3,4-b]pyrrol-3(2H)-yl]propan-1-ol]
< 500 | CC(C)CCCN1CCC2c3ccc(S(=O)(=O)c4ccccc4)cc3OCC21 (single isomer, unassigned) [Example 94, 3-(4-methylpentyl)-7-(phenylsulfonyl)-1,2,3,3a,4,9b-hexahydrochromeno[3,4-b]pyrrole]
< 500 | O=S(=O)(c1ccccc1)c1ccc2c(c1)OCC1C2CCN1Cc1ccccc1 (single isomer, unassigned) [Example 95, 3-benzyl-7-(phenylsulfonyl)-1,2,3,3a,4,9b-hexahydrochromeno[3,4-b]pyrrole]
< 500 | O=S(=O)(c1ccccc1)c1ccc2c(c1)OCC1C2CCN1CCc1ccccc1 (single isomer, unassigned) [Example 96, 3-(2-phenylethyl)-7-(phenylsulfonyl)-1,2,3,3a,4,9b-hexahydrochromeno[3,4-b]pyrrole]
< 500 | O=S(=O)(c1ccccc1)c1ccc2c(c1)OCC1C2CCN1CCO (single isomer, unassigned) [Example 97, 2-[7-(phenylsulfonyl)-1,3a,4,9b-tetrahydrochromeno[3,4-b]pyrrol-3(2H)-yl]ethanol]
> 1000 | CC(C)CN1CCC2c3ccc(S(=O)(=O)c4ccccc4)cc3OCC21 (single isomer, unassigned) [Example 98, 3-(2-methylpropyl)-7-(phenylsulfonyl)-1,2,3,3a,4,9b-hexahydrochromeno[3,4-b]pyrrole]
> 1000 | COCCN1CCC2c3ccc(S(=O)(=O)c4ccccc4)cc3OCC21 (single isomer, unassigned) [Example 99, 3-(2-methoxyethyl)-7-(phenylsulfonyl)-1,2,3,3a,4,9b-hexahydrochromeno[3,4-b]pyrrole]
< 500 | O=S(=O)(c1ccccc1)c1ccc2c(c1)OCC1C2CCN1CCCO (single isomer, unassigned) [Example 100, 3-[7-(phenylsulfonyl)-1,3a,4,9b-tetrahydrochromeno[3,4-b]pyrrol-3(2H)-yl]propan-1-ol]
> 1000 | CC(C)CCCN1CCC2c3ccc(S(=O)(=O)c4ccccc4)cc3OCC21 (single isomer, unassigned) [Example 101, 3-(4-methylpentyl)-7-(phenylsulfonyl)-1,2,3,3a,4,9b-hexahydrochromeno[3,4-b]pyrrole]
> 1000 | O=S(=O)(c1ccccc1)c1ccc2c(c1)OCC1C2CCN1Cc1ccccc1 (single isomer, unassigned) [Example 102, 3-benzyl-7-(phenylsulfonyl)-1,2,3,3a,4,9b-hexahydrochromeno[3,4-b]pyrrole]
> 1000 | O=S(=O)(c1ccccc1)c1ccc2c(c1)OCC1C2CCN1CCc1ccccc1 (single isomer, unassigned) [Example 103, 3-(2-phenylethyl)-7-(phenylsulfonyl)-1,2,3,3a,4,9b-hexahydrochromeno[3,4-b]pyrrole]
< 500 | CC(C)Oc1cc(F)cc(S(=O)(=O)c2ccc3c(c2)OCC2NCCC32)c1 (single isomer, unassigned) [Example 108, 7-{[3-fluoro-5-(propan-2-yloxy)phenyl]sulfonyl}-1,2,3,3a,4,9b-hexahydrochromeno[3,4-b]pyrrole]

system: rats; assay: not given; settings: compared to an untreated control group; cited from earlier work

Structure (SMILES) | non-REM (NREM) sleep
CN1CCN(c2cccc3c(S(=O)(=O)c4ccccc4)c[nH]c23)CC1 [RO 4368554] | increase

system: rats; assay: not given; settings: rat model of tonic, persistent pain; cited from earlier work

Structure (SMILES) | antinociceptive effect
COc1ccc(NS(=O)(=O)c2sc3ccc(Cl)cc3c2C)cc1N1CCNCC1 [SB-271046] | short-lived, antinociceptive effect
